Source: patent US7727553B2, “Oral preparations with favorable disintegration characteristics” (Dainippon Sumitomo Pharma Co., Ltd., priority 2000, dated 2010)

Test: physchem
Details: for solubility at 30 min: 22.5 °C, thermodynamic from solid
Protocol: According to the method disclosed in the Pharmacopoeia of Japan, the solubility (μg/ml) of Compound 1 was measured when treated for 30 minutes under the following conditions. • (1) Conditions for measurement of solubility:
Solvent: Diluted McIlvaine buffer

SMILES: Cl.O=C1[C@@H]2[C@H]3CC[C@H](C3)[C@@H]2C(=O)N1C[C@@H]1CCCC[C@H]1CN1CCN(c2nsc3ccccc23)CC1 [Compound 1, N-[4-[4-(1,2-benzisothiazol-3-yl)-1-piperazinyl]-(2R, 3R)-2,3-tetramethylenebutyl]-(1′R, 2′S, 3′R, 4′S)-2,3-bicyclo[2.2.1]heptanedicarboximide hydrochloride]
- solubility of Compound 1 (in words): quite low
- solubility at 30 min (pH 3, aqueous buffer): > 20 µg/mL
- solubility at 30 min (pH 4, aqueous buffer): 8.2 µg/mL
- solubility at 30 min (pH 5, aqueous buffer): 0.7 µg/mL
